The values below come from patent US20250129041A1, “MOLECULAR GLUE AND USES THEREOF” (ASTROGEN, INC., priority 2023, published 2025).

For one data set, the system named is Huh7. Put plainly: HCC cell survival by cell nuclear staining, 24 hours, Huh7. The following applies: Homo sapiens, Huh-7. The format is cell-based. The procedure:
(§1) An indication expansion experiment was performed to evaluate the potential of AST-DT-218 for treating hepatocellular carcinoma (HCC). First, HCC cell lines (Huh7, Hep3B, SNU449, and SNU475) were prepared, and AST-DT-218 and Sorafenib were at the highest concentration of 50 μM, serially diluted by half starting therefrom, thereby preparing 10 concentrations (50 μM, 25 μM, 12.5 μM, etc.). HCC cell lines (Huh7, Hep3B, SNU449, SNU475) were seeded into 96-well plates, in which each well was treated with AST-DT-218 and Sorafenib solutions, and the cells were cultured in an incubator for 24 hours. Then, the cell survival at each concentration was evaluated by measuring the cell count using cell nuclear staining, and a concentration-response curve of cell survival was created based on the data, and the IC50 value was derived.

For a further data set, the system named is SNU449. The data set is described as follows: HCC cell survival by cell nuclear staining, 24 hours, SNU449. The format is cell-based. Particulars: Homo sapiens, SNU-449. The procedure:
as §1

In a further data set the test system is Hep3B. Put plainly: HCC cell survival by cell nuclear staining, 24 hours, Hep3B. The format is cell-based. Particulars: Homo sapiens. The procedure: as §1
Another data set concerns TA98 and TA100 strains. The following applies: positive controls. The procedure:
First, TA98 and TA 100 strains, which detect frameshift mutations and point mutations, respectively, were cultured. Then, AST-DT-218 was dissolved in a solvent and diluted to various concentrations (20.5 μg/mL, 61.7 μg/mL 185.1 μg/mL, […], 1666.6 μg/mL, and 5000 μg/mL) to prepare an […] (a metabolic activation system; concentration: 30%) including liver enzyme extracts and supplements. Into a histidine-deficient medium at different concentrations of AST-DT-218, (i) the TA98 strain was inoculated without the […] (TA98−S9), (ii) the TA98 strain was inoculated by mixing it with the […] (TA98+S9), (iii) the TA100 strain was inoculated without the […] (TA100−S9), and (iv) the TA100 strain was inoculated by mixing it with the S9 mixture (TA100+S9). As a solvent control, which is a negative control, only the solvent was inoculated into a histidine-deficient medium, and only a pure solvent was used in the absence of any compound. […] After culturing for 48 to 72 hours in each medium, the number of colonies generated was counted to calculate the mutation rate, and the mutagenic effect was compared depending on the presence or absence of the S9 mixture to analyze the effect on metabolic activation.

The target of a further data set is CRBN proteins (Homo sapiens (Human), UniProt Q96SW2). Put plainly: CRBN affinity test. The format is binding. The following applies: purified CRBN proteins expressed in E. coli. The procedure:
First, CRBN proteins were expressed in E. coli and purified, and then the purified CRBN proteins were dissolved in a buffer solution (PBS). […] After the mixture was sufficiently mixed and reacted, the binding strength at each concentration was measured to collect data, and a binding curve was created therefrom (see FIG. 13), and the KD (equilibrium dissociation constant) values were derived therefrom (see Table 9 and FIG. 14).

Sequence of CRBN proteins (Q96SW2 whole entry): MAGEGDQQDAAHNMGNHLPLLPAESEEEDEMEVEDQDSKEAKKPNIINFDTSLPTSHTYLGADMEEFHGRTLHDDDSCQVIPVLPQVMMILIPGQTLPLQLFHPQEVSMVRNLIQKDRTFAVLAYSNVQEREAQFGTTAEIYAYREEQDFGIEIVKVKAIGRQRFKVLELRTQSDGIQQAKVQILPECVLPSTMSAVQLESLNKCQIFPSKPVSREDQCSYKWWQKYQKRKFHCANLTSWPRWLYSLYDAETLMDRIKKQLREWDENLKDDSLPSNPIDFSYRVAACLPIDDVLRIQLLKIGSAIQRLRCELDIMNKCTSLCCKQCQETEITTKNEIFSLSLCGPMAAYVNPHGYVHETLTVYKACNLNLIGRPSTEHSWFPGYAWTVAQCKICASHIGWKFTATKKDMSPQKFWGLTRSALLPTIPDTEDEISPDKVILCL

A word on the IC50: it is the midpoint of a concentration-inhibition curve. Read a low IC50 as inhibition by little substance. Consider `CNC(=O)c1cc(Oc2ccc(NC(=O)Nc3ccc(Cl)c(C(F)(F)F)c3)cc2)ccn1` [Sorafenib, reference compound], for which the results for the IC50 in the data set with Huh7, with SNU449 and with Hep3B were 4.37 µM, 11.3 µM and 5.67 µM, respectively.

For `O=[N+]([O-])c1ccc2c(c1)Cc1ccccc1-2` [Example 2-NF, 2-nitrofluorene], the “number of mutant colonies” value in the data set on TA98 and TA100 strains is reported as “significant increase”.

One may read the Kd as the constant that tells how readily two partners part at equilibrium. Read a high Kd as lower affinity. For the compound `C[C@H](CO)Nc1cccc2c1C(=O)N(C1CCC(=O)NC1=O)C2=O` (stereo partly drawn) [AST-DT-220, 2-(2,6-dioxopiperidin-3-yl)-4-(((R)-1-hydroxypropan-2-yl)amino)isoindoline-1,3-dione], the Kd on CRBN proteins stood at 52 nM.

The compound `CCCC(C)Nc1cccc2c1C(=O)N(C1CCC(=O)NC1=O)C2=O` (stereo in doubt) [AST-DT-135, 2-(2,6-dioxopiperidin-3-yl)-4-(((S)-pentan-2-yl)amino)isoindoline-1,3-dione] registered a Kd at CRBN proteins of 29 nM.

As for `Nc1ccc2cc3ccccc3cc2c1` [Example 2-AA, 2-aminoanthracene], the “number of mutant colonies” value in the data set on TA98 and TA100 strains is “significant increase”.
